# Measurements: patent publication US10588985B2, “Compositions and methods relating to RAD6 inhibition” (Wayne State University, priority 2015, dated 2020)
# Tests used:
# HCC1937 TNBC cells = test: Cell survival assay (MTT or trypan blue); type: cell-based; conditions: Homo sapiens, 72 hours
# Description: (§1) MDA-MB-231, SUM-1315, MDA-MB-468, and HCC1937 TNBC cells (ATCC) were maintained in Dulbecco's Modified Eagle's Medium (DMEM)/F-12 supplemented with 5% fetal bovine serum. Nontransformed MCF10A human breast cells were maintained in DMEM/F12 supplemented with 5% horse serum, 20 ng/ml epidermal growth factor, 10 μg/ml insulin, 0.5 μg/ml hydrocortisone and 0.10 μg/ml cholera toxin. Sensitivity to SMI #9-GNP was assessed by trypan blue staining or MTT colorimetric assay. Briefly, cells were seeded in 96-well plates at a density of 5-7×10^3 cells per well and allowed to attach overnight. Cells were treated with free SMI #9, SMI #9-GNP, or blank-GNP at various concentrations in triplicates for 72 hours. In some cases, treatments included various doses of cisplatin singly or in combination with SMI #9-GNP. On the final day, medium was replaced with drug free medium, incubated with MTT at 37° C. for 2-3 hours. The medium and MTT were removed, and the MTT-formazan crystals dissolved in 200 μl of 0.04 N HCl/isopropanol, and absorbance measured at 570 nm using the Synergy 2 multi-well plate reader. Alternately, cultures were trypsinized and cell viability determined by trypan blue exclusion using the Biorad TC10 automatic cell counter. At least two to three independent experiments were performed for each cell line.
# [1] = test system: nontransformed MCF10A human breast cells; test: Cell survival assay (MTT or trypan blue); type: cell-based; conditions: 72 hours
# Description: as §1
# MDA-MB-468 TNBC cells = test: Cell survival assay (MTT or trypan blue); type: cell-based; conditions: Homo sapiens; MDA-MB-468 cells, 72 hours
# Description: as §1
# [2] = test system: MDA-MB-468 or SUM1315 triple negative breast cancer cell derived tumors; test: Orthotopic tumor growth assay, tumor line not given; type: in vivo; conditions: female nude mice, 1.5 mg/kg intratumorally every fourth day
# Description: (§2) MDA-MB-468 or SUM1315 triple negative breast cancer cells (1×10^6 cells suspended in 0.1 ml Matrigel) were injected subcutaneously into the fatpads of fourth and fifth inguinal mammary glands of female nude mice. Mice were randomized and treatments with SMI #9-GNP (0.285 mg/kg body wt), SMI #9 free drug (1.5 mg/kg body wt.), blank-GNP (volumes equivalent to SMI #9-GNP), or vehicle control were initiated upon detection of palpable lesions. Control vehicle or SMI #9 free drug was administered intratumorally whereas blank-GNP and SMI #9-GNP were administered intraperitoneally. Treatments were given every fourth day. Tumor volumes and body weights were measured twice a week and mice were monitored for weight loss, gastrointestinal distress, activity, body posture, and food/water intake. Mice were sacrificed at 35-44 days postimplantation. Tumors were harvested and weighed.
# [3] = test system: LC3-I/LC3-II in MDA-MB-231 cells; test: Western blot of LC3-I/II; type: cell-based; conditions: 24 hours
# Description: (§3) Breast cancer cells treated with vehicle, free SMI #9, blank- or SMI #9-GNP (1-5 μM) for 24-96 hours were lysed, and aliquots of lysates containing 25 μg of protein were subjected to SDS-PAGE and western blot analysis of PARP-1 (Cell Signaling), Rad6, LC3-I/II (Cell Signaling), and […] (Sigma). To determine LC3 subcellular localization, control or SMI #9-GNP treated cells were fixed with methanol:acetone (1:1, v/v) and stained with anti-LC3 antibody. Slides were incubated with FITC-conjugated secondary antibody, counterstained with DAPI and analyzed by fluorescence microscopy.
# [4] = test system: LC3-I/LC3-II in SUM1315 cells; test: Western blot of LC3-I/II; type: cell-based; conditions: 24 h
# Description: as §3
# PARP-1 in TNBC cells = test: Western blot of PARP-1 steady-state levels; type: cell-based; conditions: TNBC cell lines, 24 hours
# Description: as §3
# SUM1315 TNBC cells = test: Cell survival assay (MTT or trypan blue); conditions: 72 hours, for SMI #9-GNP based on the concentration of SMI #9
# Description: as §1
# MDA-MB-231 TNBC cells = test: Cell survival assay (MTT or trypan blue); conditions: Homo sapiens; MDA-MB-231 cells, 72 hours; for SMI #9-GNP based on the concentration of SMI #9
# Description: as §1
# HCC1937 cells = test: Mitochondrial membrane potential, JC-1 assay; type: cell-based; conditions: overnight, 1 μM
# Description: (§4) The impact of free SMI #9 or SMI #9-GNP on mitochondrial membrane potential (Δψm) on SUM1315 and HCC1937 TNBC cells was assessed using JC-1 (Mitocapture, Biovision, Mountainview, Calif.), a potentiometric green fluorescent dye that shifts to red fluorescence within mitochondria with a normal negative […]. Briefly, cells were incubated with the MitoCapture reagent for 15 min at 37° C. and imaged by fluorescence microscopy as described in Shekhar M P et al., Cancer Biol Ther 2008; 7:1774-82.
# (§5) The percent of cells showing punctate red fluorescence or diffuse green fluorescence were scored by counting three-five fields of 50-100 cells in each field. Each experiment was repeated at least three times and results expressed as mean±S.E. Statistical significance of differences was determined by Student's t test.
# SUM1315 cells = test: Mitochondrial membrane potential, JC-1 assay; type: cell-based
# Description: as §4, §5
# [5] = test system: SUM1315 triple negative breast cancer cell derived tumors; test: Orthotopic tumor growth assay; type: in vivo, mice; conditions: SUM1315 xenografts, intraperitoneal injection at 5 mg/kg
# Description: as §2, with “Mice were randomized and treatments with SMI #9-GNP (0.285 mg/kg body wt), SMI #9 free drug (1.5 mg/kg body wt.), blank-GNP (volumes equivalent to SMI #9-GNP), or vehicle control were initiated upon detection of palpable lesions.” left out
# in vivo = test: in vivo; design: species or system mice; conditions: mouse, iv, 5 mg/kg
# Description: To determine release of conjugated drugs and metabolic stability of GNP conjugates, mice were given a single i.v. injection of SMI #9-GNP at 5 mg/kg body wt. Blood samples were collected at 0, 5 min, 15 min, 30 min, 1 h, 2 h, 4 h, 8 h, and 24 h post-injection. Similarly, to assess the stability of SMI #9 as a free drug, a single i.v. injection of SMI #9 at 5 mg/kg was injected and blood samples collected. Concentrations of SMI #9 in plasma were determined by tandem LC-MS/MS and non-compartmental analysis with WinNonlin v5.2 (Pharsight).
structure (smiles),measurement,setting,value
Nc1nc(COC(=O)c2ccc([N+](=O)[O-])cc2)nc(Nc2ccccc2)n1 [SMI #9],GI50,HCC1937 TNBC cells,1.8 µM
same,sensitivity (growth inhibition),[1],unaffected
same,GI50,MDA-MB-468 TNBC cells,3 µM
same,tumor growth,[2],tumor growth inhibition compared to controls
same,LC3-I and LC3-II levels,[3],downregulated both LC3-I and LC3-II
same,changes in LC3-I processing,[4],not readily apparent
same,PARP-1 processing / steady-state levels,PARP-1 in TNBC cells,stabilization/hyperactivation of PARP-1
same,GI50,SUM1315 TNBC cells,6 µM
same,GI50,MDA-MB-231 TNBC cells,5 µM
same,JC-1 punctate red fluorescence,HCC1937 cells,reduced the punctate red fluorescence staining
same,mitochondrial integrities,SUM1315 cells,similarly and dramatically compromised
same,JC-1 punctate red fluorescence,"SUM1315 cells; overnight, 1 μM",reduced the punctate red fluorescence staining
same,tumor growth,[5],no significant change in tumor growth
same,Cmax,in vivo,409 nM
same,Tmax,in vivo,~5 min
